Results: PubChem BioAssay AID1963850 (Molecular Pharmacology Branch, DTP, NCI, 2024)

Tested on: 192522-019-R-J2-PDC complex tumor spheroid viability
Assay: Anticancer human tumor 192522-019-R-J2-PDC patient-derived colon adenocarcinoma cell line growth inhibition [POLQ]
Details: for IC50: curve of first compound; for viability, T/C: stronger effect = lower value
Experimental: Multicellular complex tumor spheroid response to Polymerase (POL) inhibitors (novobiocin, ART-558, RP6685) in combination with a variety of drugs and investigational agents in selected tumor cell lines
The POL inhibitors (novobiocin, ART-558, and RP6685) were evaluated both individually and in combination with standard of care and investigational anticancer small molecules within a complex spheroid model of solid tumors. . Complex spheroids include a stromal component modeled by human endothelial cells (HUVEC) and fibroblasts modeled by human mesenchymal stem cells (MSCs). The concentration ranges selected for each drug and investigational agent were based upon clinically achievable concentrations if the clinical Cmax of the agent was known.
Compounds. The drugs and investigational agents: novobiocin (NSC847541), ART-558 (NSC835418), RP-6685 (NSC848927), peposertib (NSC802822), ceralasertib (NSC780249), elimusertib (NSC800525), camonsertib (NSC841442), AZD-1390 (NSC803789), olaparib (NSC753686), talazoparib (NSC767125), rucaparib (NSC756644), sotorasib (NSC818433), MRTX-1133 (NSC836407), SN-38 (NSC673596), topotecan (NSC609699), epotoside (NSC141540), doxorubicin (NSC123127), gemcitabine (NSC613327), 5-fluorouracil (NSC19893), paclitaxel (NSC125973), vemurafenib (NSC761431), MSA-2 (NSC828583), SN-011 (NSC837082), adavosertib (NSC754352), prexasertib (NSC758257), carboplatin (NSC241240) and oxaliplatin (NSC266046), were obtained from the National Cancer Institute (NCI) Developmental Therapeutics Program Chemical Repository (21). The FDA-approved anticancer drug set is available from the Developmental Therapeutics Program at https://dtp.cancer.gov/organization/dscb/obtaining/. […] The stock solutions were prepared in dimethyl sulfoxide (DMSO, Sigma-Aldrich, St. Louis, MO, cat. D2650), except for the platinum compounds which were prepared in saline (Quality Biological, Gaithersburg, MD, cat. 114-055-101), at 800-fold the tested concentration and stored at -70 degrees C prior to their use. All drugs and investigational agents were tested over a range starting from a high concentration at or near the clinical Cmax and decreasing in half-log increments. If the clinical Cmax for an agent had not been determined, the highest concentration tested was 10 microM, except for SN-38, which was tested at a high concentration of 1 microM.
Cell Culture. All cells were maintained in an incubator at 37 degrees C and 5% CO2 with 95% humidity. The PDC lines were cultured according to standard operating procedures established by the NCI PDMR (https://pdmr.cancer.gov). Table 3 of the manuscript, lists the cell lines along with the number of the three cell types plated to form the mct-spheroids and media for tumor cell growth. After thawing, all PDC lines, except 997537-175-T-J1-PDC and 415267-285-R-J2-PDC, were cultured in Matrigel-coated flasks prepared with a working solution of 1X Ham's F-12 nutrient mix, without supplementation (Thermo Fisher Scientific, cat. 11765054), 100 U/mL penicillin-streptomycin (Thermo Fisher Scientific, cat. 15140122), and 2.5% Matrigel (Corning Inc., Corning, NY, cat. 354248) for the first three passages. The two PDC lines 997537-175-T-J1-PDC and 415267-285-R-J2-PDC were cultured on uncoated flasks. The 857933-349-R-J2-PDC line was cultured in 6C/Colon 1B media containing advanced DMEM/F-12 (Thermo Fisher Scientific, cat. 12634028), 10 mM HEPES (Thermo Fisher Scientific, cat. 15630080), 1X GlutaMAX supplement (Thermo Fisher Scientific, cat. 35050061), 0.1 mg/mL primocin (InvivoGen, San Diego, CA, cat. ant-pm-2), 10% defined fetal bovine serum, heat inactivated (HyClone Laboratories Inc., Logan, UT, cat. SH30070.03HI), 50% L-WRN conditioned media (ATCC, cat. CRL-3276), 1.25 mM N-Acetyl-L-cysteine (Sigma-Aldrich, cat. A9165), 10 mM nicotinamide (Sigma-Aldrich, cat. N0636), 1X B-27 supplement (Thermo Fisher Scientific, cat. 17504044), 1X N-2 supplement (Thermo Fisher Scientific, cat. […]

[1] = second compound 0.0316 µM, first compound 0.0316 µM
[2] = second compound 0.0316 µM, first compound 0.1 µM
[3] = second compound 0.0316 µM, first compound 0.316 µM
[4] = second compound 0.0316 µM, first compound 1 µM
[5] = second compound 0.0316 µM, first compound 3.16 µM
[6] = second compound 0.0316 µM, first compound 10 µM
[7] = second compound 0.1 µM, first compound 0.0316 µM
[8] = second compound 0.1 µM, first compound 0.1 µM
[9] = second compound 0.1 µM, first compound 0.316 µM
[10] = second compound 0.1 µM, first compound 1 µM
[11] = second compound 0.1 µM, first compound 3.16 µM
[12] = second compound 0.1 µM, first compound 10 µM
[13] = second compound 0.316 µM, first compound 0.0316 µM
[14] = second compound 0.316 µM, first compound 0.1 µM
[15] = second compound 0.316 µM, first compound 0.316 µM
[16] = second compound 0.316 µM, first compound 1 µM
[17] = second compound 0.316 µM, first compound 3.16 µM
[18] = second compound 0.316 µM, first compound 10 µM
[19] = second compound 1 µM, first compound 0.0316 µM
[20] = second compound 1 µM, first compound 0.1 µM
[21] = second compound 1 µM, first compound 0.316 µM
[22] = second compound 1 µM, first compound 1 µM
[23] = second compound 1 µM, first compound 3.16 µM
[24] = second compound 1 µM, first compound 10 µM
[25] = second compound 3.16 µM, first compound 0.0316 µM
[26] = second compound 3.16 µM, first compound 0.1 µM
[27] = second compound 3.16 µM, first compound 0.316 µM
[28] = second compound 3.16 µM, first compound 1 µM
[29] = second compound 3.16 µM, first compound 3.16 µM
[30] = second compound 3.16 µM, first compound 10 µM
[31] = second compound 10 µM, first compound 0.0316 µM
[32] = second compound 10 µM, first compound 0.1 µM
[33] = second compound 10 µM, first compound 0.316 µM
[34] = second compound 10 µM, first compound 1 µM
[35] = second compound 10 µM, first compound 3.16 µM
[36] = second compound 10 µM, first compound 10 µM
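Also: spheroids exposed to drugs for seven days before reading.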
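For viability, T/C in this document: 100% = DMSO vehicle control viability in luminescence.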

O=C(c1cc(Cc2n[nH]c(=O)c3ccccc23)ccc1F)N1CCN(C(=O)C2CC2)CC1 + Nc1ccc(C#CCN(C(=O)Cc2ncc(C(F)(F)F)cc2C(F)(F)F)c2ccc(F)cc2)nn1
IC50 (second compound 0.0316 µM): > 10 µM
IC50 (second compound 0.1 µM): > 10 µM
IC50 (second compound 0.316 µM): > 10 µM
IC50 (second compound 1 µM): > 10 µM
IC50 (second compound 3.16 µM): > 10 µM
IC50 (second compound 10 µM): > 10 µM
viability, T/C [1]: 105%
viability, T/C [2]: 116%
viability, T/C [3]: 106%
viability, T/C [4]: 105%
viability, T/C [5]: 111%
viability, T/C [6]: 104%
viability, T/C [7]: 108%
viability, T/C [8]: 104%
viability, T/C [9]: 102%
viability, T/C [10]: 102%
viability, T/C [11]: 110%
viability, T/C [12]: 105%
viability, T/C [13]: 117%
viability, T/C [14]: 105%
viability, T/C [15]: 101%
viability, T/C [16]: 112%
viability, T/C [17]: 111%
viability, T/C [18]: 95.6%
viability, T/C [19]: 110%
viability, T/C [20]: 102%
viability, T/C [21]: 97.3%
viability, T/C [22]: 104%
viability, T/C [23]: 114%
viability, T/C [24]: 106%
viability, T/C [25]: 116%
viability, T/C [26]: 104%
viability, T/C [27]: 103%
viability, T/C [28]: 105%
viability, T/C [29]: 106%
viability, T/C [30]: 113%
viability, T/C [31]: 107%
viability, T/C [32]: 111%
viability, T/C [33]: 110%
viability, T/C [34]: 103%
viability, T/C [35]: 110%
viability, T/C [36]: 110%

COc1cccc2c1C(=O)c1c(O)c3c(c(O)c1C2=O)CC(O)(C(=O)CO)CC3OC1CC(N)C(O)C(C)O1 (centres undefined) + Cc1cccc(N(C)C(=O)C2C(O)CCN2c2nc(C)cc(C(F)(F)F)c2C#N)c1
IC50 (second compound 0.0316 µM): > 10 µM
IC50 (second compound 0.1 µM): > 10 µM
IC50 (second compound 0.316 µM): > 10 µM
IC50 (second compound 1 µM): > 10 µM
IC50 (second compound 3.16 µM): > 10 µM
IC50 (second compound 10 µM): > 10 µM
viability, T/C [1]: 99.3%
viability, T/C [2]: 79.8%
viability, T/C [3]: 73.9%
viability, T/C [4]: 86.3%
viability, T/C [5]: 69.6%
viability, T/C [6]: 57.2%
viability, T/C [7]: 94%
viability, T/C [8]: 85.6%
viability, T/C [9]: 72.5%
viability, T/C [10]: 83.8%
viability, T/C [11]: 69.1%
viability, T/C [12]: 67.7%
viability, T/C [13]: 98.3%
viability, T/C [14]: 91.1%
viability, T/C [15]: 69.4%
viability, T/C [16]: 77%
viability, T/C [17]: 65.2%
viability, T/C [18]: 63.3%
viability, T/C [19]: 110%
viability, T/C [20]: 92%
viability, T/C [21]: 76.5%
viability, T/C [22]: 83.7%
viability, T/C [23]: 75.5%
viability, T/C [24]: 61.1%
viability, T/C [25]: 96.5%
viability, T/C [26]: 99.9%
viability, T/C [27]: 74.2%
viability, T/C [28]: 69.7%
viability, T/C [29]: 70.9%
viability, T/C [30]: 60.3%
viability, T/C [31]: 102%
viability, T/C [32]: 79.1%
viability, T/C [33]: 69.9%
viability, T/C [34]: 62.7%
viability, T/C [35]: 67.3%
viability, T/C [36]: 49.8%
